Data reported in patent US20240174625A1, “COMPOSITIONS AND METHODS FOR TREATING TAUOPATHIES” (The Regents of the University of California, priority 2021, published 2024).

How the values were obtained:
[1] = target: Recombinant human (rh) NPEPPS protein (Homo sapiens, UniProt P55786); experiment: Cell-free thermal shift (protein stability) assay; assay type: binding; settings: concentration-dependent
Method: Cell-free thermal shift assay: Recombinant human (rh) NPEPPS protein was diluted in Buffer A (20 mM Tris, 137 mM NaCl, pH 7.5) to a final concentration of 1.25 μM and added to a pre-chilled 384-well microplate (Biorad HSR4801). JMM001, dimethyl sulfoxide (DMSO, Sigma D2650), or NPEPPS inhibitor puromycin dihydrochloride (Sigma P8833) in 1 μl was then added to each well, mixed with gentle aspiration, and incubated with rhNPEPPS for 3 min on ice. SYPRO Orange (Invitrogen S6651) was diluted to 200× concentration in Buffer A and added to each well achieving a final dilution of 1:20, mixed with gentle aspiration. The final assay volume was 20 μl. The plate was sealed followed by a brief spin-down. The samples were analyzed on a Real-time PCR system (Roche LightCycler 480) from 20° C. to 85° C. at a continuous acquisition rate of 5 measurements/° C. and measured at excitation/emission wavelengths of 533/580 nm. Melting temperature is calculated as the lowest derivative of the fluorescence signal as a function of the temperature as previously described^7,18.

α-synuclein = experiment: alpha-synuclein protein level in human primary cortical neurons; assay type: cell-based; settings: 50 μM, 48 hrs
Method: FIG. 11. Potential applications of NPEPPS enhancer JMM series on other neurodegenerative diseases. JMM001 (Cp 1) at 50 μM reduces protein levels of huntingtin (htt), SOD1, ataxin, and alpha-synuclein in human primary cortical neurons. Neurons were treated with 50 μM JMM001 or 10 uM bestatin for 48 hrs. N=3-4±SEM.

Chain of Recombinant human (rh) NPEPPS protein (P55786 whole entry): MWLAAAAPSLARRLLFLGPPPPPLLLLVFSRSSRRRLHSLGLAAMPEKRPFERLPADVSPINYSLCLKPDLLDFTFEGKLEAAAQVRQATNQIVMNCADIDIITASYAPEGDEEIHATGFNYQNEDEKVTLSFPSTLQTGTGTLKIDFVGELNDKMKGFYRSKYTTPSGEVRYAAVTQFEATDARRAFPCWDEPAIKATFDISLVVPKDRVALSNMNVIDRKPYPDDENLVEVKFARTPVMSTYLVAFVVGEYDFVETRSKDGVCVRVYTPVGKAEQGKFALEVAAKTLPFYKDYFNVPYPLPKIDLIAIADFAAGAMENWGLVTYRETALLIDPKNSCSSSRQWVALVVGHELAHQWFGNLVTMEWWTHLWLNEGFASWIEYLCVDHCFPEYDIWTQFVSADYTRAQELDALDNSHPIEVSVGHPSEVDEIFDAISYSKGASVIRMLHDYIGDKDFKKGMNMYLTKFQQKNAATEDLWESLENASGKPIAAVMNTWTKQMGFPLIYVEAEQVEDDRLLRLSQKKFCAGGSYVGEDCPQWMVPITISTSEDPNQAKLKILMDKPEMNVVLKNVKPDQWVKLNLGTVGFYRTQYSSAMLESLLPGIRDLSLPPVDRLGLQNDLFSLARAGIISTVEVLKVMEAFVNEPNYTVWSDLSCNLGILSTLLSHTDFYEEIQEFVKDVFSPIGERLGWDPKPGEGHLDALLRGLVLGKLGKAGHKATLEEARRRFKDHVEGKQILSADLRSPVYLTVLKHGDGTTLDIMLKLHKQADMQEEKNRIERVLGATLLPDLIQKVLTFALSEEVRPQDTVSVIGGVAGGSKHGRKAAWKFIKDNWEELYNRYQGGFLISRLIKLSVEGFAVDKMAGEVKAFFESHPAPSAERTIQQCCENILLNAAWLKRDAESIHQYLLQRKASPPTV

In the case of `COc1ccc(CNc2nsc3ccccc23)cc1OC` [JMM001], the “melting temperature of rhNPEPPS” value [1] is reported as “significant, concentration-dependent increases in melting temperature” and the “protein level of α-synuclein” value (α-synuclein) is reported as “reduces”.
